BigSolDB 2.1

## CC(=O)C1=C(O)C=C2Oc3c(C(C)=O)c(O)c(C)c(O)c3C2(C)C1=O (stereo in doubt)
In acetone, 278.15 K
  solubility (mole fraction): 0.000422
In acetone, 283.15 K
  solubility (mole fraction): 0.000454
In acetone, 288.15 K
  solubility (mole fraction): 0.000541
In acetone, 293.15 K
  solubility (mole fraction): 0.00061
In acetone, 298.15 K
  solubility (mole fraction): 0.000747
In acetone, 303.15 K
  solubility (mole fraction): 0.000879
In acetone, 308.15 K
  solubility (mole fraction): 0.000978
In acetone, 313.15 K
  solubility (mole fraction): 0.00121
In acetone, 318.15 K
  solubility (mole fraction): 0.00165
In acetone, 323.15 K
  solubility (mole fraction): 0.00197
In ethanol, 288.15 K
  solubility (mole fraction): 3.09e-05
In ethanol, 293.15 K
  solubility (mole fraction): 4.23e-05
In ethanol, 298.15 K
  solubility (mole fraction): 5.3e-05
In ethanol, 303.15 K
  solubility (mole fraction): 6.8e-05
In ethanol, 308.15 K
  solubility (mole fraction): 9.3e-05
In ethanol, 313.15 K
  solubility (mole fraction): 0.000114
In ethanol, 318.15 K
  solubility (mole fraction): 0.000121
In ethanol, 323.15 K
  solubility (mole fraction): 0.000148
In ethanol, 328.15 K
  solubility (mole fraction): 0.000203
In ethanol, 333.15 K
  solubility (mole fraction): 0.000234
In ethanol, 338.15 K
  solubility (mole fraction): 0.000274
In ethyl acetate, 288.15 K
  solubility (mole fraction): 0.00109
In ethyl acetate, 293.15 K
  solubility (mole fraction): 0.00125
In ethyl acetate, 298.15 K
  solubility (mole fraction): 0.00158
In ethyl acetate, 303.15 K
  solubility (mole fraction): 0.00189
In ethyl acetate, 308.15 K
  solubility (mole fraction): 0.00216
In ethyl acetate, 313.15 K
  solubility (mole fraction): 0.00275
In ethyl acetate, 318.15 K
  solubility (mole fraction): 0.00314
In ethyl acetate, 323.15 K
  solubility (mole fraction): 0.0038
In ethyl acetate, 328.15 K
  solubility (mole fraction): 0.00444
In ethyl acetate, 333.15 K
  solubility (mole fraction): 0.00518
In ethyl acetate, 338.15 K
  solubility (mole fraction): 0.00689
In n-hexane, 288.15 K
  solubility (mole fraction): 5.97e-05
In n-hexane, 293.15 K
  solubility (mole fraction): 6.97e-05
In n-hexane, 298.15 K
  solubility (mole fraction): 8.06e-05
In n-hexane, 303.15 K
  solubility (mole fraction): 9.43e-05
In n-hexane, 308.15 K
  solubility (mole fraction): 0.000106
In n-hexane, 313.15 K
  solubility (mole fraction): 0.000128
In n-hexane, 318.15 K
  solubility (mole fraction): 0.000149
In n-hexane, 323.15 K
  solubility (mole fraction): 0.000176
In n-hexane, 328.15 K
  solubility (mole fraction): 0.000224
In n-hexane, 333.15 K
  solubility (mole fraction): 0.000256
In n-hexane, 338.15 K
  solubility (mole fraction): 0.00029
In water, 288.15 K
  solubility (mole fraction): 2.81e-07
In water, 293.15 K
  solubility (mole fraction): 2.99e-07
In water, 298.15 K
  solubility (mole fraction): 3.31e-07
In water, 303.15 K
  solubility (mole fraction): 3.52e-07
In water, 308.15 K
  solubility (mole fraction): 3.75e-07
In water, 313.15 K
  solubility (mole fraction): 4.06e-07
In water, 318.15 K
  solubility (mole fraction): 4.46e-07
In water, 323.15 K
  solubility (mole fraction): 4.77e-07
In water, 328.15 K
  solubility (mole fraction): 5.3e-07
In water, 333.15 K
  solubility (mole fraction): 5.94e-07
In water, 338.15 K
  solubility (mole fraction): 6.61e-07
